Laboratory results: the NIST ThermoML archive (doi:10.1016/j.fluid.2014.04.038)
Where “and” joins values, the source holds several entries; their conditions need not be identical. Identical values can stand only once.

Settings: Hot wire method

CCF [fluoroethane]
Liquid
Settings	thermal conductivity
233.99 K	0.1496 W/m/K
234 K	0.1487 W/m/K
234.01 K	0.1487 W/m/K
234.32 K	0.1483 W/m/K and 0.1482 W/m/K and 0.1492 W/m/K
234.57 K	0.1496 W/m/K
234.63 K	0.1492 W/m/K
234.64 K	0.149 W/m/K
244.01 K	0.1429 W/m/K
244.04 K	0.1429 W/m/K and 0.1423 W/m/K
244.22 K	0.1424 W/m/K
244.25 K	0.143 W/m/K
244.26 K	0.1433 W/m/K
244.5 K	0.1426 W/m/K
244.51 K	0.142 W/m/K
244.54 K	0.1426 W/m/K
253.79 K	0.1362 W/m/K and 0.1361 W/m/K
253.8 K	0.1362 W/m/K
254.08 K	0.1364 W/m/K
254.09 K	0.1368 W/m/K and 0.1363 W/m/K
254.12 K	0.1357 W/m/K
254.14 K	0.135 W/m/K
254.15 K	0.1346 W/m/K
254.36 K	0.1352 W/m/K
254.37 K	0.1358 W/m/K
254.41 K	0.1355 W/m/K
254.71 K	0.1359 W/m/K
254.75 K	0.1355 W/m/K
254.79 K	0.1354 W/m/K
263.94 K	0.1286 W/m/K
263.95 K	0.128 W/m/K and 0.1283 W/m/K
264.16 K	0.1283 W/m/K
264.17 K	0.1287 W/m/K
264.19 K	0.1288 W/m/K
264.43 K	0.1285 W/m/K
264.51 K	0.1293 W/m/K and 0.129 W/m/K
274.37 K	0.1215 W/m/K
274.39 K	0.1214 W/m/K
274.4 K	0.1213 W/m/K
274.62 K	0.1218 W/m/K
274.64 K	0.1224 W/m/K
274.66 K	0.122 W/m/K
274.95 K	0.1224 W/m/K
274.97 K	0.1224 W/m/K
274.98 K	0.1226 W/m/K
284.17 K	0.1146 W/m/K
284.22 K	0.1146 W/m/K
284.23 K	0.1153 W/m/K
284.43 K	0.1154 W/m/K
284.46 K	0.1155 W/m/K
284.47 K	0.1152 W/m/K
284.78 K	0.1163 W/m/K
284.8 K	0.1164 W/m/K
284.81 K	0.1162 W/m/K
294.43 K	0.1097 W/m/K
294.59 K	0.1098 W/m/K
294.63 K	0.1109 W/m/K and 0.1095 W/m/K
294.64 K	0.1105 W/m/K
294.65 K	0.1103 W/m/K
294.7 K	0.1103 W/m/K
294.89 K	0.1094 W/m/K
294.9 K	0.1096 W/m/K
294.91 K	0.1093 W/m/K
294.94 K	0.1112 W/m/K and 0.1104 W/m/K
294.95 K	0.111 W/m/K
295.22 K	0.11 W/m/K and 0.1098 W/m/K
304.39 K	0.1056 W/m/K
304.4 K	0.1056 W/m/K
304.41 K	0.1057 W/m/K
304.67 K	0.1054 W/m/K
304.68 K	0.1056 W/m/K and 0.1052 W/m/K
305.07 K	0.1055 W/m/K
305.19 K	0.1057 W/m/K and 0.1058 W/m/K
314.36 K	0.1007 W/m/K and 0.1002 W/m/K
314.38 K	0.1003 W/m/K
314.4 K	0.1003 W/m/K and 0.1012 W/m/K
314.46 K	0.1013 W/m/K
314.68 K	0.1009 W/m/K
314.69 K	0.1008 W/m/K
314.7 K	0.1003 W/m/K
314.71 K	0.1011 W/m/K and 0.1008 W/m/K
314.72 K	0.1006 W/m/K
315.05 K	0.1008 W/m/K
315.06 K	0.1007 W/m/K
315.07 K	0.1005 W/m/K and 0.101 W/m/K and 0.1008 W/m/K
315.08 K	0.1002 W/m/K
324.64 K	0.09597 W/m/K and 0.09452 W/m/K
324.66 K	0.09557 W/m/K
324.85 K	0.09515 W/m/K
324.86 K	0.09533 W/m/K
324.87 K	0.09498 W/m/K
325.28 K	0.09515 W/m/K
325.29 K	0.09565 W/m/K
325.3 K	0.09512 W/m/K

Gas
Settings	thermal conductivity [W/m/K]
236.45 K, 86.1 kPa	0.00838
244.29 K, 84.5 kPa	0.00938
245.47 K, 132.2 kPa	0.00931
246.92 K, 132.2 kPa	0.00972
248.24 K, 132.2 kPa	0.00989
248.83 K, 84.5 kPa	0.00985
254.05 K, 84.5 kPa	0.01031
255.52 K, 201.2 kPa	0.01058
260.98 K, 132.4 kPa	0.01112
265.31 K, 286.1 kPa	0.01142
266.46 K, 286.1 kPa	0.01169
275.33 K, 370.8 kPa	0.01266
276 K, 139.9 kPa	0.01306
276.13 K, 370.8 kPa	0.01296
277.34 K, 370.8 kPa	0.01294
278.06 K, 139.9 kPa	0.01337
278.85 K, 139.9 kPa	0.01329
286.13 K, 481.4 kPa	0.01426
286.26 K, 271.3 kPa	0.01438
287.56 K, 578.8 kPa	0.01402
287.6 K, 481.4 kPa	0.01425
287.72 K, 271.3 kPa	0.01452
288.9 K, 481.4 kPa	0.01448
289.14 K, 271.3 kPa	0.0144
295.76 K, 779.2 kPa	0.01526
295.78 K, 690.7 kPa	0.0151
295.97 K, 520.7 kPa	0.01551
296.2 K, 275.3 kPa	0.01553
297.07 K, 690.7 kPa	0.01526
297.24 K, 520.7 kPa	0.01534
297.64 K, 275.3 kPa	0.01544
298.46 K, 520.7 kPa	0.01532
299.03 K, 275.3 kPa	0.01558
305.63 K, 712.7 kPa	0.01677
305.93 K, 916.4 kPa	0.0163
306.16 K, 227 kPa	0.01673
306.42 K, 1035 kPa	0.01653
306.59 K, 712.7 kPa	0.01627
306.71 K, 504.3 kPa	0.01683
306.93 K, 916.4 kPa	0.01663
306.93 K, 1035 kPa	0.01725
306.97 K, 227 kPa	0.01654
307.36 K, 1035 kPa	0.01661
307.57 K, 504.3 kPa	0.01663
307.89 K, 227 kPa	0.01643
315.53 K, 1227.4 kPa	0.01838
315.63 K, 1202.4 kPa	0.01779
315.79 K, 316.7 kPa	0.01783
315.81 K, 1005.9 kPa	0.01828
315.87 K, 807.4 kPa	0.01738
316.01 K, 1341.3 kPa	0.01815
316.27 K, 1202.4 kPa	0.01803
316.4 K, 1005.9 kPa	0.01789
316.4 K, 1341.3 kPa	0.01835
316.53 K, 1162.6 kPa	0.01796
316.59 K, 807.4 kPa	0.01737
316.83 K, 613.8 kPa	0.01747
316.94 K, 1202.4 kPa	0.0181
317.06 K, 1341.3 kPa	0.01801
317.12 K, 1005.9 kPa	0.01811
318.31 K, 316.7 kPa	0.01787
321.99 K, 1292.4 kPa	0.01904
322.07 K, 1292.4 kPa	0.01921
322.37 K, 797.5 kPa	0.01858
322.59 K, 797.5 kPa	0.01847
323.36 K, 797.5 kPa	0.01857
324.32 K, 1700.6 kPa	0.01997
324.97 K, 1700.6 kPa	0.0202
325.27 K, 1362.6 kPa	0.01957
325.45 K, 1700.6 kPa	0.02011
326.1 K, 1362.6 kPa	0.01993
326.61 K, 1095.3 kPa	0.0197
326.64 K, 968 kPa	0.01935
326.71 K, 798.3 kPa	0.01946
326.98 K, 999.2 kPa	0.01933
